Laboratory results reported in patent US9428551B2, “Antimicrobial peptides” (priority 2009, dated 2016).

Experiments:
[1] = test system: Staphylococcal isolates associated with joint or tissue infections; experiment: deferred antagonism method, inhibition of clinical Staphylococcal isolates; format: cell-based, Staphylococci; design: key to Inhibition caused by NI01: NI indicates no inhibition; 1+: on a score of 1-3; 2+: on a score of 1-3; 3+: on a score of 1-3
[2] = test system: S. saprophyticus; experiment: MIC by micro-dilution (BSAC); format: cell-based
[3] = test system: S. hominis; experiment: MIC by micro-dilution (BSAC); format: cell-based
[4] = test system: S. warneri; experiment: MIC by micro-dilution (BSAC); format: cell-based
[5] = test system: S. aureus 1195; experiment: MIC by micro-dilution (BSAC); format: cell-based
[6] = test system: Enterococcus faecalis; experiment: MIC by micro-dilution (BSAC); format: cell-based
[7] = test system: Vancomycin resistant Enterococcus faecalis; experiment: MIC by micro-dilution (BSAC); format: cell-based
[8] = test system: Streptococcus mutans; experiment: MIC by micro-dilution (BSAC); format: cell-based;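 note: MIC in µg/ml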
[9] = test system: Bacillus cereus; experiment: MIC by micro-dilution (BSAC); format: cell-based
[10] = test system: Bacillus subtillis; experiment: MIC by micro-dilution (BSAC); format: cell-based
[11] = test system: Propionibacterium acnes; experiment: spot on lawn method; format: cell-based; conditions: purified preparations of NI01, spot on lawn method
[12] = pH stability; format: physicochemical
[13] = test system: strain 156 biofilm; experiment: biofilm formation on peptide-coated polyethylene beads; format: cell-based, Staphylococcus epidermidis; conditions: beads submerged in semi-pure peptide 2 hours, inoculum 3×10^8 cfu/ml of strain 156, p=0.000
[14] = test system: reference strain RP62a, gentamicin resistant clinical isolate 53 and gentamicin sensitive isolate 156; experiment: single-step (spontaneous) mutation tests; format: cell-based, S. epidermidis; conditions: two, four and eight times the MIC; strains RP62a, 53 and 156; no evidence of mutation
[15] = test system: clinical biofilm forming strains of CNS Staphylococci species associated with prosthetic joint infections; experiment: passaging in sub-inhibitory concentrations; format: cell-based; conditions: for MIC after passaging: sub-inhibitory concentrations
[16] = test system: S. epidermidis 156; experiment: viability, optical density and Gram staining after addition of peptide; format: cell-based
[17] = test system: S. epidermidis s42; experiment: membrane potential, DiSC3(5) assay; format: cell-based; conditions: all concentrations assessed; levels exceeded positive control nisin 10×MIC
Excerpt: (§1) Results are expressed as % of positive control and that NI01 causes concentration dependent release of potassium from indicator cells with 100% being released at the highest concentration of NI01 assessed (10×MIC).
In summary, mode of action studies, using DiSC3(5) [3,3′-Dipropylthiadicarbocyanine iodide] assays, indicate that NI01 depolarises the membrane (FIG. 12) of the a Staphylococcus epidermidis strain resulting in loss of potassium (FIG. 13) and ATP (FIG. 14).

[18] = test system: S. epidermidis s42; experiment: potassium release, K+ sensitive fluorescent dye PBFI; format: cell-based; conditions: highest concentration, 10×MIC
Excerpt: as §1

[19] = test system: S. epidermidis s42; experiment: ATP release; format: cell-based; conditions: 10×MIC
[20] = test system: haemolysis
[21] = test system: vero cells
[22] = enzyme stability of the peptide (activity in AU/ml after enzyme treatment)
[23] = Strain 11, gentamicin and methicillin resistant clinical isolate
[24] = Strain 12, gentamicin resistant clinical isolate
[25] = following treatment with protease

peptide NI01: antimicrobial peptide (bacteriocin, SEQ ID NO:3) obtained from a Staphylococcal culture; C terminal sequence QSFEWIYKQIKKLWA (MAAFMKLIQFLATKGQKYVSLAWKHKGTILKWINAGQSFEWIYKQIKKLWA; NOI01 polypeptide)
Inhibition caused by NI01 ([1]; isolate 5133, Tissue (acetabulum), resistance: flu): 2+
Inhibition caused by NI01 ([1]; isolate S1, Tissue, resistance: meth, pen, ery, amp, flu, gen, trim, cip): 2+
Inhibition caused by NI01 ([1]; isolate S2, Joint fluid, resistance: pen, ery, amp, flu, gen, trim, cip): 2+
Inhibition caused by NI01 ([1]; isolate S4, Tissue, resistance: meth, flu, gen, trim): 3+
Inhibition caused by NI01 ([1]; isolate S5, Tissue, resistance: met): 3+
Inhibition caused by NI01 ([1]; isolate S6, Femoral canal, resistance: flu, ery, gen, rif, cip): 1+
Inhibition caused by NI01 ([1]; isolate S7, Femoral canal, sensitive): 1+
Inhibition caused by NI01 ([1]; isolate S8, Tissue, resistance: flu, ery, gen, rif, cip): 1+
Inhibition caused by NI01 ([1]; isolate S9, Tissue, resistance: flu, ery, gen, rif, cip): 3+
Inhibition caused by NI01 ([1]; isolate S10, Tissue, resistance: flu, ery, gen, rif, cip): 1+
Inhibition caused by NI01 ([1]; isolate S11, Tissue, resistance: flu, ery, gen, rif, cip): 2+
Inhibition caused by NI01 ([1]; isolate S12, Tissue, resistance: flu, ery, rif, cip): 1+
Inhibition caused by NI01 ([1]; isolate S13, Swab, resistance: flu, ery, gen, rif, cip): 1+
Inhibition caused by NI01 ([1]; isolate S25, Swab (left hip joint), resistance: meth, gen): 2+
Inhibition caused by NI01 ([1]; isolate S28, Tissue (femoral canal), resistance: meth, gen): 3+
Inhibition caused by NI01 ([1]; isolate S30, Tissue (left capsule), resistance: meth): 3+
Inhibition caused by NI01 ([1]; isolate S31, Swab (joint), sensitive): 2+
Inhibition caused by NI01 ([1]; isolate S37, Tissue (knee), sensitive): 2+
Inhibition caused by NI01 ([1]; isolate S39, Tissue (right knee), resistance: meth, flu, fus, cip): 1+
Inhibition caused by NI01 ([1]; isolate S40, Tissue (right knee), resistance: meth, flu, ery, fus, clin, cip): 1+
Inhibition caused by NI01 ([1]; isolate S41, Tissue (femoral canal), resistance: meth, flu, fus, cip): 1+
Inhibition caused by NI01 ([1]; isolate S42, Tissue (right knee), resistance: meth, flu, fus, cip): NI
Inhibition caused by NI01 ([1]; isolate S43, Swab (right hip joint), resistance: meth, flu, ery, fus, clin, cip): NI
Inhibition caused by NI01 ([1]; isolate S44, Swab (right hip joint), resistance: meth, flu, ery): NI
Inhibition caused by NI01 ([1]; isolate S46, Swab (right hip joint), resistance: meth, flu, gen, fus, cip): NI
Inhibition caused by NI01 ([1]; isolate S47, Swab (tibia), resistance: meth, flu, ery, gen, fus, cip): NI
Inhibition caused by NI01 ([1]; isolate S48, Tissue (left knee), resistance: meth, flu, ery, gen, fus, cip): 1+
Inhibition caused by NI01 ([1]; isolate S49, Tissue (left knee), resistance: meth, flu, ery, gen, fus, cip): 2+
Inhibition caused by NI01 ([1]; isolate S52, Tissue (right hip joint), resistance: gen, cip): 2+
Inhibition caused by NI01 ([1]; isolate S53, Swab (femur), resistance: gen, cip, fus): 2+
Inhibition caused by NI01 ([1]; isolate S56, Tissue (right hip joint), sensitive): 2+
Inhibition caused by NI01 ([1]; isolate S60, Tissue (femur), resistance: gen, trim): NI
Inhibition caused by NI01 ([1]; isolate S71, Swab (femur), resistance: flu): 2+
Inhibition caused by NI01 ([1]; isolate S78, Tissue (right elbow), resistance: flu, ery): 1+
Inhibition caused by NI01 ([1]; isolate S79, Pus (right elbow), resistance: meth, flu, ery): 1+
Inhibition caused by NI01 ([1]; isolate S80, Tissue (triceps), resistance: flu, ery): 1+
Inhibition caused by NI01 ([1]; isolate S81, Pus (right elbow), resistance: flu, ery): 1+
Inhibition caused by NI01 ([1]; isolate S82, Tissue (right elbow), resistance: flu, ery): 1+
Inhibition caused by NI01 ([1]; isolate S83, Tissue (next to bone), resistance: flu, ery): 1+
Inhibition caused by NI01 ([1]; isolate S85, Tissue (left elbow), resistance: meth, ery): 1+
Inhibition caused by NI01 ([1]; isolate S86, Swab (right elbow), sensitive): 2+
Inhibition caused by NI01 ([1]; isolate S88, Swab (left hip), sensitive): 1+
Inhibition caused by NI01 ([1]; isolate S89, Tissue (right elbow), resistance: meth, flu, ery): 1+
Inhibition caused by NI01 ([1]; isolate S90, Ulcer, resistance: flu, ery): 2+
Inhibition caused by NI01 ([1]; isolate S91, Swab (right acetabulum), resistance: flu): 2+
Inhibition caused by NI01 ([1]; isolate S92, Swab (femur), resistance: flu): 1+
Inhibition caused by NI01 ([1]; isolate S93, Tissue (wound), resistance: flu, ery, gen, fus): NI
Inhibition caused by NI01 ([1]; isolate S94, Tissue (right femur), resistance: flu): 3+
Inhibition caused by NI01 ([1]; isolate S95, Tissue (right femur), resistance: flu, trim): 3+
Inhibition caused by NI01 ([1]; isolate S96, Tissue (right femur), resistance: flu): 1+
Inhibition caused by NI01 ([1]; isolate S97, Tissue (acetabulum), resistance: flu): 3+
Inhibition caused by NI01 ([1]; isolate S106, Neck of femur, resistance: ery, fus): 3+
Inhibition caused by NI01 ([1]; isolate S127, Tissue (screw holes), resistance: flu): 1+
Inhibition caused by NI01 ([1]; isolate S128, Tissue (under plate), resistance: meth, flu): 1+
Inhibition caused by NI01 ([1]; isolate S156, Tissue (acetabulum), resistance: ery, fus): 3+
Inhibition caused by NI01 ([1]; isolate S159, Swab (right thigh), resistance: meth, flu, ery): 1+
Inhibition caused by NI01 ([1]; isolate S160, Swab (right hip), resistance: meth, flu, gen): 2+
Inhibition caused by NI01 ([1]; isolate S161, Swab (right hip sinus), resistance: flu, ery, gen, fus, cip): 2+
Inhibition caused by NI01 ([1]; isolate S163, Tissue (right hip), resistance: flu, ery, gen, fus, cip): 1+
Inhibition caused by NI01 ([1]; isolate S164, Tissue (right hip), resistance: ery, fus, amp, clin): NI
inhibitory effect, score ([1]; isolate Staphylococcus epidermis 156, biofilm forming, from infected acetabulum tissue, over a 100 hour period (FIG. 5)): +3
clinical biofilm forming isolates of Staphylococci inhibited ([1]; isolates associated with joint and/or tissue infections, summary of Table 1): 58 out of the 60
clinical biofilm forming isolates of Staphylococci inhibited, percent ([1]; summary of Table 1): 91%
MIC [2]: 0.5 to 1 µg/mL
MIC [3]: 1 µg/mL
MIC [4]: 1 µg/mL
MIC [5]: 2 µg/mL
MIC [6]: 1 µg/mL
MIC ([7]; Vancomycin resistant Enterococcus faecalis 1): 1 µg/mL
MIC ([7]; Vancomycin resistant Enterococcus faecalis 2): 1 µg/mL
MIC ([7]; Vancomycin resistant Enterococcus faecalis 3): 1 µg/mL
MIC ([7]; Vancomycin resistant Enterococcus faecalis 4): 1 to 2 µg/mL
MIC ([7]; Vancomycin resistant Enterococcus faecalis 5): 0.5 to 1 µg/mL
MIC ([7]; Vancomycin resistant Enterococcus faecalis 6): 0.5 µg/mL
MIC ([8]; Streptococcus mutans 263): 2 µg/mL
MIC ([8]; Streptococcus mutans 313): 0.12 µg/mL
MIC [9]: <0.125 µg/mL
MIC [10]: <0.125 µg/mL
activity against Propionibacterium acnes [11]: activity
activity lost ([12]; acidic pH 2): about 5%
activity lost ([12]; alkaline pH 10): 12%
activity retained ([12]; between pH 4-8): 100%
reduction of biofilm on coated versus uncoated polyethylene beads [13]: 2.85 log units
mutation (single-step mutation tests) [14]: < 1.5×10^8 cfu/ml
MIC before passaging [15, 23]: 7800 µg/mL
MIC after passaging [15, 23]: 15600 µg/mL
MIC before passaging [15, 24]: 3900 µg/mL
MIC after passaging [15, 24]: 7800 µg/mL
change in MIC after passaging ([15]; all of the other strains tested (of twelve)): no change
stained cells per field of view (Gram stain) following addition of peptide ([16]; at least 150 small cocci per field prior to addition): less than 20 cells per field of view
type of activity against the target bacterium ([16]; from cfu count and optical density): bactericidal, but non-lytic
cfu count after addition of peptide ([16]; peptide added at T=30, decrease not as pronounced in optical density): rapid decrease
effect on membrane potential [17]: rapidly depolarized the membrane
potassium release [18]: 100 % of positive control
ATP released [19]: > 65 % of positive control
haemolysis [20]: not haemolytic
cells that looked apoptotic [21]: 10-20%
damage to vero cells [21]: No significant damage
activity after treatment [22, 25]: 160 AU/ml
reduction in activity [22, 25]: 75%
activity before enzyme treatment ([22]; partially purified peptide, starting activity): 640 AU/ml
activity after treatment ([22]; treatment with trypsin): 320 AU/ml
reduction of activity ([22]; treatment with trypsin): 50%
